From BindingDB's records for patent US20250074891 (Anaxis Pharma, 2025)

Assays:
Assay in all cases: In Vitro Assay
[1] = target: Receptor-interacting serine/threonine-protein kinase 3 (Homo sapiens, UniProt Q9Y572)
Procedure: (§1) Kinase assays. For most assays, kinase-tagged T7 phage strains were grown in parallel in 24-well blocks in an E. coli host derived from the BL21 strain. E. coli were grown to log-phase and infected with T7 phage from a frozen stock (multiplicity of infection=0.4) and incubated with shaking at 32° C. until lysis (90-150 minutes).

[2] = target: T1, Receptor-interacting serine/threonine-protein kinase 1 (Homo sapiens, UniProt Q13546)
T1 sequence (Q13546 whole entry): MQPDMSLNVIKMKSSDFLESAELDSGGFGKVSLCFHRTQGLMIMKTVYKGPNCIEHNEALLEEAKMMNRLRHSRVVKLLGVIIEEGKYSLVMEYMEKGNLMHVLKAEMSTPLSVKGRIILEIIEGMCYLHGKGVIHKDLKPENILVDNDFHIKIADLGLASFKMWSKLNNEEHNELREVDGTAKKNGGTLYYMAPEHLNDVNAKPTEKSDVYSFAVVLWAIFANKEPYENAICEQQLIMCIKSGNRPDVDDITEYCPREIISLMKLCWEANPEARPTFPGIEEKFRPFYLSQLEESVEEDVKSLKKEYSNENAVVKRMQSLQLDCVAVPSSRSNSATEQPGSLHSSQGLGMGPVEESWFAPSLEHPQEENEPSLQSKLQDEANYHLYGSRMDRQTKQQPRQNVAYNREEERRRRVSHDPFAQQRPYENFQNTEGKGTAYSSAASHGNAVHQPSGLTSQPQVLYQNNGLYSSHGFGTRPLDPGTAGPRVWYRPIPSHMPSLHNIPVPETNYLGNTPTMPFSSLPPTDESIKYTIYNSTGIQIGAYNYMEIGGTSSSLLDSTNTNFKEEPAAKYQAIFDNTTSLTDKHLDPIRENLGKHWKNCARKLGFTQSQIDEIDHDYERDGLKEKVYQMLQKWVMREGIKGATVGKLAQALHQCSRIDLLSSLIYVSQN
Procedure: as §1

[3] = target: T2, Mixed lineage kinase domain-like protein (Homo sapiens, UniProt Q8NB16)
T2 sequence (Q8NB16 whole entry): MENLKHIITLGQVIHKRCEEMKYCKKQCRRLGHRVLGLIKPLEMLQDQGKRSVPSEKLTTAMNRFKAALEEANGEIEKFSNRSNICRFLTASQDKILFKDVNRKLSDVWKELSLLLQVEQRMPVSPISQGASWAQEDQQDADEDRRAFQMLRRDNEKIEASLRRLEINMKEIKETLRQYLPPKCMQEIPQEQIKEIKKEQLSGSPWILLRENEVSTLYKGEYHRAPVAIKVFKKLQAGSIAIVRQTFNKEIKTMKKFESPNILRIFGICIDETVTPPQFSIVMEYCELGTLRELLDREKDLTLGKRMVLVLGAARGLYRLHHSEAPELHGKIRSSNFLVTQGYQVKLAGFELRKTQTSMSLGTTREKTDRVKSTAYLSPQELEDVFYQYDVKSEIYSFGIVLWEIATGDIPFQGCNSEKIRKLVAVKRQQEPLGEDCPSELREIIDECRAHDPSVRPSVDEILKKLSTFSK
Procedure: as §1

Chain of Receptor-interacting serine/threonine-protein kinase 3 (Q9Y572 whole entry): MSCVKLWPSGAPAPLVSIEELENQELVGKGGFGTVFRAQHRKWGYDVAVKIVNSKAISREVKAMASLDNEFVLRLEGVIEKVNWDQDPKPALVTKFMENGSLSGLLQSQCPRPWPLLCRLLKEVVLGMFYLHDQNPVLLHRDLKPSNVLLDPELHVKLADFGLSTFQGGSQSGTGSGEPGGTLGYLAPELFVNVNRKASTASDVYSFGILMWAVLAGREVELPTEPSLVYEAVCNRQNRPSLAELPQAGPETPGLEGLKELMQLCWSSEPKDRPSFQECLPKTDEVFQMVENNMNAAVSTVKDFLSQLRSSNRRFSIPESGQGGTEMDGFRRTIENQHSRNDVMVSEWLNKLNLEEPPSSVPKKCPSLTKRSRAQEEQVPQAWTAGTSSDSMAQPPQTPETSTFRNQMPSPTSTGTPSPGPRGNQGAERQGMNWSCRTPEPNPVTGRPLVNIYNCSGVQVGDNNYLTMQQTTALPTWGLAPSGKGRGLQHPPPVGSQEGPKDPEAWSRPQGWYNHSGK

NC(=O)c1c(-c2ccc(NS(=O)(=O)CC(F)(F)F)c(OCc3ccc(F)cc3)c2)n[nH]c1Nc1cccc(C(F)(F)F)n1
Kd [1]: > 30 µM
Kd [2]: > 30 µM
Kd [3]: in the range around 0.505 µM

NC(=O)c1c(-c2ccc(NS(=O)(=O)Cc3ccc(Cl)cc3)cc2)n[nH]c1Nc1cccc(C(F)(F)F)n1 [US20250074891, Compound 60]
Kd [1]: > 30 µM
Kd [2]: > 30 µM

CCS(=O)(=O)Nc1ccc(-c2n[nH]c(Nc3cccc(C(F)F)n3)c2C(N)=O)cc1 [US20250074891, Compound 92]
Kd [2]: > 30 µM
Kd [3]: < 0.01 µM

CCOc1nccc(Nc2[nH]nc(-c3ccc(NS(=O)(=O)CC)cc3)c2C(N)=O)n1 [US20250074891, Compound 98]
Kd [1]: > 30 µM
Kd [2]: > 30 µM
Kd [3]: < 0.01 µM

CCS(=O)(=O)Nc1ccc(-c2n[nH]c(Nc3cnccn3)c2C(N)=O)cc1OC1CCCc2cc(F)ccc21 (stereo not given) [US20250074891, Compound 224]
Kd [1]: > 30 µM
Kd [2]: > 30 µM
Kd [3]: < 0.01 µM

C[C@H](Oc1cc(-c2n[nH]c(Nc3cc(C4(C)CCOCC4)on3)c2C(N)=O)ccc1NS(=O)(=O)C(F)F)c1ccc(F)cc1 [US20250074891, Compound 301]
Kd [1]: > 30 µM
Kd [2]: > 30 µM
Kd [3]: < 0.01 µM

C[C@H](Oc1cc(-c2n[nH]c(Nc3cc(C4CC4)on3)c2C(N)=O)ccc1NS(=O)(=O)C(F)F)c1ccc(F)cc1 [US20250074891, Compound 310]
Kd [1]: > 30 µM
Kd [2]: > 30 µM
Kd [3]: < 0.01 µM

Cc1ncsc1-c1ccc(CNC(=O)[C@@H]2C[C@@H](O)CN2C(=O)[C@@H](NC(=O)CCCCOc2ccc(Nc3[nH]nc(-c4ccc(NS(=O)(=O)C(F)F)c(OCc5ccc(F)cc5)c4)c3C(N)=O)nc2)C(C)(C)C)cc1 [US20250074891, Compound 1025]
Kd [3]: < 0.01 µM
